Test results published in patent US12302908B2, “Insect neuropeptides 4” (Solasta Bio Limited, priority 2023, dated 2025).

Legend:
[1] = test system: Plutella xylostella; assay: Leaf dip assay 2 (IRAC susceptibility test method 019), mortality; type: in vivo; conditions: unformulated peptide at 1×10^−4 M; dipped leaf disc on agar; after 96 hours; FIG. 6
Description: The assay was carried out based on IRAC susceptibility test method 019 (irac-online.org/methods/aphids-adultnymphs/). Fill a small 4 cm wide 3 cm high dish with a 1% agar treatment solution of the active chemical or control (ensuring 1 cm gap between the agar and the lid) and leave to set. Dip a 2.5 cm leaf disc into 3 ml of treatment solution allowing the treatment to coat the leaf. Leave the disc to dry for 1 hour and place onto the set agar. Place insects (Plutella xylostella) onto each of the leaf discs. Each unit is sealed with a close-fitting, ventilated lid. Place the agar dishes in a small plastic tray lined with moist tissue paper and ensure the water trays in the bottom of the incubator are filled with clean water and place within the incubator. An assessment of mortality is made at 72, 96 and 120 hours. Leaf dip assays were performed with SB—P-81, and compared to a negative control vehicle and a current commercial insecticide Chlorantraniliprole. The activity of SB—P-81 is shown in FIG. 6; SB—P-81 has good activity whilst being eco-friendly and targeted to specific pests unlike broad spectrum chemical insecticides such as Chlorantraniliprole.

[2] = test system: Plutella xylostella; assay: Leaf dip assay 1 (IRAC susceptibility test method 018, performed by FERA), mortality; type: in vivo; conditions: unformulated peptide at 2×10^−4 M; 2nd/3rd instar larvae on dipped Chinese cabbage leaf discs; mortality assessed after 120 hours; FIG. 4
Description: The assay was carried out based on IRAC susceptibility test method 018 by a contract research organization, FERA Science Ltd. Test insects Larvae (2nd/3rd instar) were sourced from a laboratory culture of P. xylostella. The culture has been maintained in a controlled environment (CE) room with conditions of 25° C. and 16:8 lighting regime on Chinese cabbage plants. Chinese cabbage leaves were used in the bioassays. A CE room set at 25° C. and 60% r.h. with a 16 hour light: 8 hours dark lighting regime, was used. Leaf discs (approximately 35 mm in diameter) were cut from fully expanded Chinese cabbage leaves. Each leaf disc was dipped in a separate peptide solution for 10 seconds with gentle agitation and placed on a damp filter paper (underside surface uppermost). There were ten replicates for each treatment and control, with five leaf discs per replicate. The treated discs were then put onto damp filter paper in the base of a Petri dishes (90 mm in diameter, 15 mm high) (underside surface uppermost). Five larvae were then transferred onto the treated leaf discs. The dishes were placed in the CE room and mortality was assessed after 120 hours. Leaf dip assays were performed with SB—P-81, and compared to a negative control vehicle and a current commercial insecticide Gazelle SG (shown as Acetamiprid). […]

[Hy]-GGSMTFSPRL-[NH2] (H-GGSMTFSPRL-NH2) [SB—P-81, pyrokinin peptide according to the invention]
activity against Plutella xylostella (mortality), leaf dip assay 2 [1]: good activity | activity against Plutella xylostella (mortality), leaf dip assay 1 [2]: good activity
